Data on one molecule can be found in patent US20120284809A1, “KNOCK DOWN MODEL OF DICKKOPF HOMOLOGUE 3 (Dkk3) FOR ASSESSING ROLE OF SAID Dkk3 IN SPERMATOGENESIS AND SEX REVERSAL” (National Institute of Immunology, priority 2011, published 2012).

The test system of the test is spermatogenesis in Dkk3 knock down model. The test can be described thus: Testosterone replacement in Dkk3 knock down model. Conditions: 5 mg intramuscularly. In kind it is in vivo, non human vertebrate. How it is done:
Serum testosterone concentrations from the Dkk3 knock down model and wild-type can be assessed at 10 weeks of age. Blood can be obtained through retro orbital bleeding before sacrificing the model. Serum testosterone can be assayed using a modified testosterone immunoassay (RIA) system in triplicate. […] For testosterone replacement, Dkk3 knock down model can be injected intramuscularly with 5 mg of testosterone undecanoate. Controls may be injected with castor oil. Blood can be taken after one month of the injection and serum testosterone levels may be measured.

Consider `CCCCCCCCCCC(=O)O[C@H]1CC[C@H]2[C@@H]3CCC4=CC(=O)CC[C@]4(C)[C@H]3CC[C@]12C` [testosterone undecanoate], for which the “Sperm counts vs Dkk3 knock down model” value (not up to wild type control levels) is listed as “marginal increase”. For the same molecule, the “degree of spermatogenesis tubule disruption (histology) vs castor oil treated controls” value (one month) is “did not showed any improvement”.
